Consider 10 molecules from US8735442B2, “Composition for alleviating ultraviolet radiation-induced damage” (priority 2009, dated 2014).

For assay [1], the system named is human dermal fibroblast derived from a patient having xeroderma pigmentosum (Group A) (XP30S (SVT)). In words: UV-A irradiation-induced cell damage in XP cells, pretreatment, Alamar Blue (Example 5). It is filed as cell-based. Particulars: UV-A 1 J/cm^2; pretreatment 0.1 μM; non-UV irradiating condition about 690, negative control about 630. As for the experimental part:
A human dermal fibroblast derived from a patient having xeroderma pigmentosum (Group […]), hereinafter referred to as “XP cell”) which was obtained from Japan Health Science Foundation was employed and cultured by the same method described in Example 3. […] The UV dose was measured using UV RADIOMETER […] Corporation).
In general terms: The colour change of resazurin is a common sign of viable cells or microbes.

The subject of assay [2] is human neonatal epidermal keratinocyte (Cryo NHEK-Neo). As to the kind of experiment: UV-B irradiation-induced cell damage in keratinocytes, D-amino acids and cysteine, Alamar Blue (Example 4). It is filed as cell-based. Particulars: UV-B 25 mJ/cm^2; 100 μM before and after irradiation; without the amino acid about 500 to 600. As for the experimental part: The cell employed was a commercially available human neonatal epidermal keratinocyte (Cryo NHEK-Neo, Sanko-Junyaku Co., Ltd.). […] Thereafter, it was cultured for 2 days in 2 mL of the ordinary medium 3 containing 100 μM D-alanine, D-serine, D-hydroxyproline, D-aspartic acid, D-cysteine or L-cysteine. As a control, the ordinary medium 3 containing PBS instead of the D-amino acid was added to the ordinary medium 3.
Thereafter, the fluorescent intensity was measured by the method described in Example 1.

Assay [3] relates to human neonatal dermal fibroblast (Cryo NHDF-Neo). As to the kind of experiment: UV-A irradiation-induced cell damage in fibroblasts, pretreatment, Alamar Blue (Example 3). The following applies: UV-A 22.5 J/cm^2; for fluorescent intensity: control about 1,100.
Assay [4] has the same test system. Particulars: for fluorescent intensity / alleviation of the cell damage: 0.1 μM; for fluorescent intensity: Mean ± SD, N = 4-6; for alleviation of the cell damage: UV-A 12.5 J/cm^2 and 15 J/cm^2. The method, then: The cell employed was a commercially available human neonatal dermal fibroblast (Cryo NHDF-Neo, Sanko-Junyaku Co., Ltd.). This cell was inoculated at 2×10^5 cells/mL to a commercially available culture dish of 35 mm in diameter (BD FALCON 353001, Beckton Dickinson Japan), where it was cultured in a commercially available cell culture medium (D-MEM (1 g/L glucose, Wako Pure Chemical Industries, Ltd.) supplemented with 10% fetal bovine serum (hereinafter referred to as “ordinary medium 2”). This cell was cultured for about 24 hours in a 5% CO2 and saturated water vapor atmosphere at 37° C.
Thereafter, the culture medium for culturing the cell described above was switched to 1 mL of a BSO medium containing a glutathione biosynthesis inhibitor BSO (L-buthionine-(S,R)-sulfoximine, Wako Pure Chemical Industries, Ltd.) at 1×10^−3%, where the culture was conducted for about 24 hours in a 5% CO2 and saturated water vapor atmosphere at 37° C. The BSO medium described above was prepared by a 200-fold dilution of a stock solution containing 0.2% BSO in ethyl alcohol with the ordinary medium 2 described above.
[…] was dissolved in a distilled water at 2×10^−3%, and the resultant solution was subjected to a 200-fold dilution (final concentration: 1×10^−5%) with a phosphate buffer solution PBS containing calcium ion and magnesium ion (PBS+) to obtain a medium (hereinafter referred to as “UV irradiation medium”), which was warmed preliminarily before use.
Before UV-A irradiation, the culture medium was replaced with 1 mL of the UV irradiation medium described above. […] The UV dose was measured using UV RADIOMETER UVR-3036/S (Topcon Corporation).
After UV irradiation, the cell was returned to the ordinary medium 2 described above where it was cultured in a 5% CO2 and saturated water vapor atmosphere at 37° C. for 21 hours. For examining the effect of adding proline after UV irradiation (hereinafter referred to as “posttreatment”), this 21-hour cultured medium was supplemented with 0.01 to 1000 μM L- or D-proline.
Thereafter, the fluorescent intensity was measured by a method described in Example 1.

For assay [5], the system named is human neonatal epidermal keratinocyte (Cryo NHEK-Neo). In words: UV-B irradiation-induced cell damage in keratinocytes, Alamar Blue (Example 1). It is filed as cell-based. The following applies: UV-B 75 mJ/cm^2; 0.1 to 100 μM, pretreatment or posttreatment; non-irradiated about 22,000, irradiated 5,000 to 7,000. As for the experimental part: The cell employed was a commercially available human neonatal epidermal keratinocyte (Cryo NHEK-Neo, Sanko-Junyaku Co., Ltd.).
Thereafter, the culture medium was supplemented with Alamar Blue (trade mark, Biosource International Inc.) at a final concentration of 10%, and its supernatant was examined for the fluorescent intensity 3 hours later with an excitation wavelength of 544 nm and a fluorescent wavelength of 590 nm as described by Ahmed S. A. et al. (J. Immunol. Method. 170, 211-224 (1994)) and in accordance with the manufacture's instruction.

The mark [6] stands for this setting: UV irradiation amount 0 J/cm^2, control 12380 ± 21.
Where [7] appears, read: UV-A 12.5 J/cm^2, control 2503 ± 629.
The mark [8] stands for this setting: UV-A 15 J/cm^2, control 1018 ± 89.

Each structure is given as a SMILES string. Like-named read-outs stand apart in the source and are kept apart here.

Turning to `N[C@@H](CS)C(=O)O` [L-cysteine], in assay [1], the fluorescent intensity result is given as “about 688”. In addition, in assay [2], the “fluorescent intensity of Alamar Blue” value is recorded as “about 700”.
For `O=C(O)[C@H]1CCCN1` [D-proline], the fluorescent intensity result in assay [1] was “about 664”; in assay [3] (pretreatment 0.1 μM) it was “about 1,750”; in assay [4] (setting [6]) it was 12270 ± 68 ^; in assay [4] (setting [7]), 4615 ± 1218 *^1; in assay [4] (setting [8]) it was 2365 ± 648 *^2. Also, the “alleviation of the cell damage” value in assay [4] is listed as “the cell damage was alleviated”. In addition, the “cell damage alleviating effect (fluorescent intensity of Alamar Blue)” value in assay [4] (UV-A 15 J/cm^2 and 22.5 J/cm^2, posttreatment, non-irradiated about 12,000, irradiated about 5,000 and about 3,000) is recorded as “the cell damage was alleviated”.
As to `O=C(O)[C@H]1C[C@H](O)CN1` [D-hydroxyproline], the “fluorescent intensity of Alamar Blue” value in assay [2] was “about 550”.
For `C[C@@H](N)C(=O)O` [D-alanine], the “fluorescent intensity of Alamar Blue” value in assay [2] is “about 570”.
As for `N[C@H](CS)C(=O)O` [D-cysteine], in assay [1], the fluorescent intensity result is on record as “about 638”. Moreover, in assay [2], the “fluorescent intensity of Alamar Blue” value is recorded as “about 700”.
On to `O=C(O)[C@@H]1CCCN1` [L-proline, reference compound], for which the fluorescent intensity entry in assay [1] is “about 583”; in assay [4] (setting [6]) it was 12211 ± 77; in assay [4] (setting [7]) it was 2877 ± 834; in assay [4] (setting [8]) it was 1552 ± 320. Besides, the “alleviation of the cell damage” value in assay [4] was “Almost no alleviation of the cell damage”. Also, the “alleviating effect on ultraviolet irradiation-induced damage” value in assay [4] (summary statement referring to the Examples) was “no alleviating effect on ultraviolet irradiation-induced damage”.
In the case of `N[C@H](CC(=O)O)C(=O)O` [D-aspartic acid], the “fluorescent intensity of Alamar Blue” value in assay [2] was “about 600”.
Turning to `N[C@H](CCC(=O)O)C(=O)O` [D-glutamic acid], the figures for the fluorescent intensity entry in assay [1] and in assay [3] (pretreatment 1 μM) were “about 675” and “about 1,700”, respectively. In assay [5], the “cell damage alleviating effect (fluorescent intensity of Alamar Blue)” value was “the cell damage was alleviated”.
In the case of `N[C@@H](CCC(=O)O)C(=O)O` [L-glutamic acid], in assay [1], the fluorescent intensity entry is recorded as “about 658”. Also, in assay [3] (pretreatment 1 μM), the “cell damage alleviating effect” value is listed as “no cell damage alleviating effect was observed” and the fluorescent intensity result is “about 1,100”. Also, the “cell damage alleviating effect (fluorescent intensity of Alamar Blue)” value in assay [5] is “No cell damage alleviating effect was observed”.
On to `N[C@H](CO)C(=O)O` [D-serine], for which the “fluorescent intensity of Alamar Blue” value in assay [2] is “about 490”.
